Paper PMC9646841, “A bead-based GPCR phosphorylation immunoassay for high-throughput ligand profiling and GRK inhibitor screening” (Communications Biology, 2022)
“And” between values parts separate entries of the source, which are not always exact repeats. Equal values may be shown once. Read-outs that look alike come from different tables or passages of the source.

Legend:
CB2 cannabinoid receptor [1] = target: T1, CB2 cannabinoid receptor (Homo sapiens, UniProt P34972); test: pS335/pS336-CB2 7TM phosphorylation assay; type: cell-based; conditions: for pS335/pS336 (CB2 Phosphorylation Assay): raw duplicate readings
T1 construct: host or cells: HEK293 (CB2-HEK293)
T1 sequence (P34972 whole entry): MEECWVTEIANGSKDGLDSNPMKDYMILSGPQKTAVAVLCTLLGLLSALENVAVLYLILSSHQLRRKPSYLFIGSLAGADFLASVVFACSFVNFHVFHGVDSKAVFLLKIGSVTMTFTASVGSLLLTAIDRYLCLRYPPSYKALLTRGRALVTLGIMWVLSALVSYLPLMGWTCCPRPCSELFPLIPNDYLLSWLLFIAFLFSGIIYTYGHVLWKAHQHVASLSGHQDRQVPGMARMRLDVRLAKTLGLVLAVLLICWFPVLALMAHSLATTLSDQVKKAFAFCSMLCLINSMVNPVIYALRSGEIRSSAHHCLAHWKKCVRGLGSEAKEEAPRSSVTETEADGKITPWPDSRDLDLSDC

CB2 cannabinoid receptor [2] = target: T1, CB2 cannabinoid receptor; test: pT338/pT339-CB2 7TM phosphorylation assay; type: cell-based; conditions: for pT338/pT339-CB2 phosphorylation (OD405): raw duplicate readings
MOP, GRK2 = MOP, GRK2 (Mus musculus, UniProt P42866); conditions: for GRK2 recruitment, normalised: normalized to 10 µM DAMGO
Chain of MOP, GRK2 (P25098 whole entry): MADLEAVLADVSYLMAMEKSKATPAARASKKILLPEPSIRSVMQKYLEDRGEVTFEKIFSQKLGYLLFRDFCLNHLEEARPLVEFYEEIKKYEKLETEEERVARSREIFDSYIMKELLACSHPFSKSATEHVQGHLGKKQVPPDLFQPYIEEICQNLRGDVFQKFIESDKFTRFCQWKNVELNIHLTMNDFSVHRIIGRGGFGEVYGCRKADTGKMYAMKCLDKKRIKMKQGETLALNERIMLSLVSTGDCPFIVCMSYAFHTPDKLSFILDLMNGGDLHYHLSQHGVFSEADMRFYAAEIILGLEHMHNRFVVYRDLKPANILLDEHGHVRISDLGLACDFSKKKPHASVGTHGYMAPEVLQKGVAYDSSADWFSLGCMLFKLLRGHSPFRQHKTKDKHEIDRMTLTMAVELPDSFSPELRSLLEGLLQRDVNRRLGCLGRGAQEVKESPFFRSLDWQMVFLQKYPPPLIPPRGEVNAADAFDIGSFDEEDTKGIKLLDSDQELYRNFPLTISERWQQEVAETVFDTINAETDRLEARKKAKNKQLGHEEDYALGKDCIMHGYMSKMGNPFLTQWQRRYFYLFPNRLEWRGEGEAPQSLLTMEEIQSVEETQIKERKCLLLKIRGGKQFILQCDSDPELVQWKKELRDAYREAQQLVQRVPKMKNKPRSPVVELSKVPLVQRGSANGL
Chain of MOP, GRK2 (P42866 whole entry): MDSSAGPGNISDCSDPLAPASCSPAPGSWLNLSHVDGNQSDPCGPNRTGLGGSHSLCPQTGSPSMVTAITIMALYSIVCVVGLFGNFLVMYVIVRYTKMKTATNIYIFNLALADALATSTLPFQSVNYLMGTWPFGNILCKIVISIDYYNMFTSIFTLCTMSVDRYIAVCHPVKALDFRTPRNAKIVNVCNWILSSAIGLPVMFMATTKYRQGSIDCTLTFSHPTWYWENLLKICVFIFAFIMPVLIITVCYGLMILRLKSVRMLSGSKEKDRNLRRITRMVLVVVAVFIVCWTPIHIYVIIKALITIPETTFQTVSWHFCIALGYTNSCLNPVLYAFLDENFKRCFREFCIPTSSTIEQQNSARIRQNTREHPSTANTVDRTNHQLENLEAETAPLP
Experimental: Agonist-dependent binding of GRK2/3 and arrestin1/2 to a MOP was determined using a β-galactosidase complementation assay as previously described[47]. […] Cells were plated in 48-well plates and grown for 48 h. After 60 min of agonist exposure, a cell lysis reagent was added, and luminescence was recorded with a FlexStation 3 microplate reader (Molecular Devices).

[3] = tested on: MOP (GIRK2 channel activation); test: GIRK channel membrane potential assay (G protein signaling); type: cell-based, mouse; conditions: for values normalised to 1µM DAMGO, mean: mean of replicates; for values normalised to 1µM DAMGO (individual values): single replicate values
Experimental: To analyze Gi signaling, changes in membrane potential produced by activation of G protein-gated inwardly rectifying potassium channel (GIRK) were measured as previously described[50],[51]. HEK293 cells were stably transfected with HA-MOP and GFP-conjugated GIRK2 channel plasmids (OriGene). The cells were then seeded in 96-well plates and allowed to grow at 37 °C in 5% CO2 for 48 h. […] A membrane potential dye (FLIPR Membrane Potential kit BLUE, Molecular Devices R8034) was reconstituted according to the manufacturer’s instructions. To each well, 90 μl of the HBSS/HEPES buffer solution and an equal volume of the membrane potential dye were added to a final volume of 180 μl per well. The cells were then incubated at 37 °C for 45 min. Test compounds were prepared in buffer solution containing HBSS and 20 mM HEPES solution (pH 7.4) at tenfold the final concentration to be measured. […] Baseline readings were taken every 1.8 s for 1 min. […] The change in dye fluorescence was recorded for 240 s with SoftMax Pro 5.4 software. Peak fluorescence values were obtained after subtraction of baseline readings for each sample and then used to calculate concentration–response curves using Origin.

WT-HEK293 cells = test: [3H]DAMGO saturation binding, WT-HEK293 (native) membranes
MOP = target: T2, MOP (Mus musculus, UniProt P42866); test: [3H]DAMGO saturation binding, MOP-HEK293 membranes
T2 construct: host or cells: HEK293 (Control-HEK293 or GRK-knockout clones), stably transfected
T2 sequence (P42866 whole entry): as above

CCCCCCC(C)(C)c1ccc([C@@H]2C[C@H](O)CC[C@H]2CCCO)c(O)c1 [CP55940]
OD405 min pS335/pS336-CB2 (CB2 cannabinoid receptor [1]): 0.38
pS335/pS336 (CB2 Phosphorylation Assay) (CB2 cannabinoid receptor [1]; CP55940 1e-6 µM): 0.4195 and 0.458 and 0.3421
pS335/pS336 (CB2 Phosphorylation Assay) (CB2 cannabinoid receptor [1]; CP55940 1e-5 µM): 0.3429 and 0.4547 and 0.4707 and 0.3409 and 0.3589 and 0.38
pS335/pS336 (CB2 Phosphorylation Assay) (CB2 cannabinoid receptor [1]; CP55940 0.0001 µM): 0.3452 and 0.3952 and 0.4236 and 0.425 and 0.3513 and 0.3869
pS335/pS336 (CB2 Phosphorylation Assay) (CB2 cannabinoid receptor [1]; CP55940 0.001 µM): 0.3318 and 0.3924 and 0.4101 and 0.3997 and 0.3583
pS335/pS336 (CB2 Phosphorylation Assay) (CB2 cannabinoid receptor [1]; CP55940 0.1 µM): 0.8954
pS335/pS336 (CB2 Phosphorylation Assay) (CB2 cannabinoid receptor [1]; CP55940 1 µM): 1.0018 and 0.9312 and 1.0017 and 0.8185
pS335/pS336 (CB2 Phosphorylation Assay) (CB2 cannabinoid receptor [1]; CP55940 10 µM): 0.9538 and 0.8534
OD405 max pT338/pT339-CB2 (CB2 cannabinoid receptor [2]): 1.74
pT338/pT339-CB2 phosphorylation (OD405) (CB2 cannabinoid receptor [2]; CP55940 0.01 µM): 0.418 and 0.427 and 0.4081 and 0.4835 and 0.513
pT338/pT339-CB2 phosphorylation (OD405) (CB2 cannabinoid receptor [2]; CP55940 0.1 µM): 0.4372 and 0.4959 and 0.4415 and 0.4741 and 0.5035 and 0.468
pT338/pT339-CB2 phosphorylation (OD405) (CB2 cannabinoid receptor [2]; CP55940 0.3 µM): 0.4559 and 0.4962 and 0.7064 and 0.6812
pT338/pT339-CB2 phosphorylation (OD405) (CB2 cannabinoid receptor [2]; CP55940 1 µM): 0.467 and 0.4332 and 0.3917 and 0.4407 and 0.4084 and 0.4786
pT338/pT339-CB2 phosphorylation (OD405) (CB2 cannabinoid receptor [2]; CP55940 3 µM): 0.4766 and 0.4184 and 0.4965 and 0.6601
pT338/pT339-CB2 phosphorylation (OD405) (CB2 cannabinoid receptor [2]; CP55940 10 µM): 1.4013 and 1.5745 and 1.5305
pT338/pT339-CB2 phosphorylation (OD405) (CB2 cannabinoid receptor [2]; CP55940 30 µM): 1.5241
pT338/pT339-CB2 phosphorylation (OD405) (CB2 cannabinoid receptor [2]; CP55940 100 µM): 1.603 and 1.5834 and 1.3626

C[C@@H](NC(=O)[C@@H](N)Cc1ccc(O)cc1)C(=O)NCC(=O)N(C)[C@@H](Cc1ccccc1)C(=O)NCCO [DAMGO, [D-Ala^2,N-MePhe^4,Gly-ol]-enkephalin]
GRK2 recruitment, raw value (MOP, GRK2; agonist 0.01 µM): 1.0365 and 0.9786 and 1.1651 and 0.7672
GRK2 recruitment, raw value (MOP, GRK2; agonist 0.1 µM): 1.7391 and 1.2836 and 1.7883 and 1.2791
GRK2 recruitment, raw value (MOP, GRK2; agonist 1 µM): 3.3164 and 2.1606 and 3.0001 and 2.3217
GRK2 recruitment, normalised (MOP, GRK2; agonist 1 µM): 102.84% and 51.53% and 88.80% and 58.68%
GRK2 recruitment, raw value (MOP, GRK2; agonist 10 µM): 3.4288 and 3.1599 and 2.7372 and 3.6836
GRK2 recruitment, normalised (MOP, GRK2; agonist 10 µM): 107.83% and 95.89% and 77.13% and 119.15%
GRK2 recruitment, raw value (MOP, GRK2; agonist 100 µM): 3.2449 and 4.0099 and 3.3544 and 3.8787
GRK2 recruitment, normalised (MOP, GRK2; agonist 100 µM): 99.67% and 133.63% and 104.53% and 127.81%
pEC50 GIRK [3]: 8.9
values normalised to 1µM DAMGO, mean ([3]; 1pM ligand): 5.028
values normalised to 1µM DAMGO (individual values) ([3]; 1pM ligand): 5.593 and 7.859 and 3.46 and 5.717 and 7.582 and 8.1092 and 3.374 and 6.042 and 4.849 and 0.5787 and 7.292 and 5.88 and 8.096 and 0.05434 and -0.3462 and 6.3053
values normalised to 1µM DAMGO, mean ([3]; 10pM ligand): 7.472
values normalised to 1µM DAMGO (individual values) ([3]; 10pM ligand): 15.49 and 11.6111 and 4.26 and 2.279 and 5.498 and 3.993 and 8.348 and 9.984 and 18.2069 and 4.03 and 10.8569 and 5.742 and 4.237 and 3.526 and 0.4892 and 11.0085
values normalised to 1µM DAMGO, mean ([3]; 100pM ligand): 9.137
values normalised to 1µM DAMGO (individual values) ([3]; 100pM ligand): 16.8969 and 12.3538 and 1.282 and -0.5086 and 23.733 and 7.982 and 12.165 and 15.3952 and 18.3102 and 7.555 and 2.414 and 2.004 and 6.703 and 3.838 and 4.846 and 11.227
values normalised to 1µM DAMGO, mean ([3]; 1nM ligand): 50.7802
values normalised to 1µM DAMGO (individual values) ([3]; 1nM ligand): 57.1798 and 57.3562 and 19.6942 and 27.9023 and 58.4493 and 49.8324 and 71.4212 and 70.7134 and 62.495 and 60.2954 and 56.8628 and 49.7728 and 53.0466 and 27.1278 and 35.6907 and 54.6435
values normalised to 1µM DAMGO, mean ([3]; 5nM ligand): 92.3187
values normalised to 1µM DAMGO, mean ([3]; 10nM ligand): 95.5035
values normalised to 1µM DAMGO, mean ([3]; 50nM ligand): 101.174
values normalised to 1µM DAMGO, mean ([3]; 100nM ligand): 99.3452
values normalised to 1µM DAMGO (individual values) ([3]; 100nM ligand): 100.4 and 100.34 and 112.066 and 111.922
values normalised to 1µM DAMGO, mean ([3]; 0.5µM ligand): 99.405
values normalised to 1µM DAMGO (individual values) ([3]; 0.5µM ligand): 99.2581 and 100.369 and 110.848 and 112.015 and 90.6195 and 92.807 and 98.2073 and 99.2624 and 100.349 and 111.9 and 110.485 and 68.4902 and 89.9215 and 98.2442 and 106.456 and 101.247
DAMGO 1µM signal in RFU ([3]; 1µM DAMGO, one value per experiment): 38.399 RFU and 40.2317 RFU and 34.405 RFU and 46.8468 RFU and 42.8267 RFU and 41.1246 RFU and 35.6065 RFU and 41.2536 RFU
values normalised to 1µM DAMGO, mean ([3]; 1µM ligand): 100
values normalised to 1µM DAMGO (individual values) ([3]; 1µM ligand): 102.126 and 101.322 and 95.8603 and 104.14 and 98.9994 and 101.001 and 101.569 and 98.4312 and 97.8738 and 109.455 and 90.5448 and 97.309 and 102.691 and 100.145 and 99.8548 and 98.6775

CN1CC[C@]23c4c5ccc(O)c4O[C@H]2[C@@H](O)C=C[C@H]3[C@H]1C5 [Morphine, morphine]
values normalised to 1µM DAMGO, mean ([3]; 1pM ligand): 6.485
values normalised to 1µM DAMGO, mean ([3]; 10pM ligand): 6.027
values normalised to 1µM DAMGO, mean ([3]; 100pM ligand): 6.211
values normalised to 1µM DAMGO, mean ([3]; 1nM ligand): 9.125
values normalised to 1µM DAMGO, mean ([3]; 5nM ligand): 29.6678
values normalised to 1µM DAMGO (individual values) ([3]; 5nM ligand): 45.7495 and 19.0875 and 13.0961 and 9.052 and 36.1933 and 47.9074 and 51.2561 and 57.2816 and 46.4485 and 43.1943 and 26.9461 and 14.2883 and 14.2724 and 18.5122 and 18.46 and 12.9399
values normalised to 1µM DAMGO, mean ([3]; 10nM ligand): 57.2564
values normalised to 1µM DAMGO (individual values) ([3]; 10nM ligand): 58.6156 and 56.0883 and 35.9476 and 44.5152 and 64.4335 and 68.3763 and 70.0077 and 70.5635 and 61.8308 and 50.7811 and 68.4527 and 63.2893 and 55.6505 and 50.3141 and 38.9941 and 58.2419
values normalised to 1µM DAMGO, mean ([3]; 50nM ligand): 66.3769
values normalised to 1µM DAMGO (individual values) ([3]; 50nM ligand): 62.166 and 62.2926 and 44.6191 and 54.7318 and 72.3421 and 70.8947 and 81.0497 and 84.3524 and 69.6407 and 82.417 and 82.3952 and 62.9287 and 75.1596 and 38.3592 and 49.3923 and 69.2894
values normalised to 1µM DAMGO, mean ([3]; 100nM ligand): 74.2194
values normalised to 1µM DAMGO (individual values) ([3]; 100nM ligand): 89.3793 and 68.637 and 62.5767 and 14.9163 and 86.9174 and 89.8616 and 87.7405 and 94.4167 and 90.0012 and 88.0147 and 94.1235 and 58.569 and 65.3044 and 67.2492 and 54.6739 and 75.1284
values normalised to 1µM DAMGO, mean ([3]; 0.5µM ligand): 76.9579
values normalised to 1µM DAMGO (individual values) ([3]; 0.5µM ligand): 87.9206 and 64.7531 and 55.8615 and 55.3841 and 81.7364 and 84.8283 and 97.4763 and 95.5436 and 86.95 and 86.0094 and 85.8902 and 63.7515 and 63.5249 and 73.9389 and 76.3702 and 71.3871
values normalised to 1µM DAMGO, mean ([3]; 1µM ligand): 72.8983
values normalised to 1µM DAMGO (individual values) ([3]; 1µM ligand): 75.501 and 68.3564 and 51.865 and 76.6338 and 75.1014 and 79.046 and 83.5821 and 81.3432 and 80.3317 and 85.1376 and 62.4253 and 66.1705 and 66.7508 and 75.1369 and 66.0921

C[C@@H](NC(=O)[C@@H](N)Cc1ccc(O)cc1)C(=O)NCC(=O)N(C)[C@@H](Cc1ccccc1)C(=O)NCCO [[3H]DAMGO]
saturation binding, mean, HEK293-native (WT-HEK293 cells; concentration 0.05 nM): 2.17
saturation binding, mean, HEK293-native (WT-HEK293 cells; concentration 2.05 nM): 2.19
saturation binding, mean, HEK293-native (WT-HEK293 cells; concentration 2.57 nM): 14.32
saturation binding, mean, HEK293-native (WT-HEK293 cells; concentration 4.21 nM): 26.91
saturation binding, mean, HEK293-native (WT-HEK293 cells; concentration 5.23 nM): 41.11
Bmax (MOP; 25°C, 60 min): 2279 ± 19 fmol/mg protein
saturation binding, mean, HEK293-MOP-HA (MOP; concentration 0.05 nM): 173.5
saturation binding, mean, HEK293-MOP-HA (MOP; concentration 2.05 nM): 1520.4
saturation binding, mean, HEK293-MOP-HA (MOP; concentration 2.57 nM): 1621.54
saturation binding, mean, HEK293-MOP-HA (MOP; concentration 4.21 nM): 1763.3
saturation binding, mean, HEK293-MOP-HA (MOP; concentration 5.23 nM): 2020.39
